Results published in patent publication US20230398090A1, “METHOD OF TREATING CORONAVIRUS INFECTION BY ADMINISTRATION OF ETHYL MERCURY OR THIOL DERIVATIVE THEREOF” (BEECH TREE LABS, INC., priority 2020, published 2023).
Read-outs that look alike come from different tables or passages of the source.

How the values were obtained:
coronavirus (SARS-CoV-2) = settings: for time until all of the subject's symptoms resolved after initial treatment: 200 ng sublingual every 15 minutes for one hour, then hourly until bedtime
[1] = tested on: pro-inflammatory cytokines; anti-inflammatory genes; settings: genomic studies, no details given
[2] = Example 4: person, after less than 48 hours of therapy

With C[CH2][Hg][S]c1ccccc1C(=O)[O-].[Na+] [thimerosal] the “time until all of the subject's symptoms resolved after initial treatment” value (coronavirus (SARS-CoV-2); Example 1: person, positive SARS-CoV-2 test, fever 104° F., shortness of breath, cough) was 20 to 24 h, the “time until all of the subject's symptoms resolved after initial treatment” value (coronavirus (SARS-CoV-2); Example 2: person, symptoms of SARS-CoV-2 infection (fever 103° F., lethargy, shortness of breath, achiness)) was ≤ 24 h and the weakness (coronavirus (SARS-CoV-2); Example 3: person, 72 hours after initial treatment) was “only partially improved”. The “time until all of the subject's symptoms resolved after initial treatment (with the exception of weakness)” value (coronavirus (SARS-CoV-2); Example 3: person, presumptive SARS-CoV-2 (fever, weakness, shortness of breath, cough), 200 ng sublingual, day 1 schedule, then six times daily on days two and three) was 72 h, the chest pain (coronavirus (SARS-CoV-2); [2]) was “not completely eliminated” and the “subject-reported energy, appetite and taste” value (coronavirus (SARS-CoV-2); [2]) was “increased energy, increased appetite and improved ability to taste”. For the same molecule, the “time of therapy until subject reported diminution of all symptoms” value (coronavirus (SARS-CoV-2); Example 4: person, positive SARS-CoV-2 test (cough, mild fever, aching, decreased energy, stomach pain), 200 ng sublingual, day 1 schedule, then six times daily on day two) was “less than 48 hours”, the “effect on other anti-inflammatory genes” value [1] was “up-regulating” and the “effect on several pro-inflammatory cytokines” value [1] was “down-regulates”.
